pIC50: −log10 of the molar value. Like-named read-outs stand apart in the source and are kept apart here.
Key:
Assay type in all cases: biochemical
aldose reductase = aldose reductase (Homo sapiens, UniProt P15121); experiment: aldose reductase inhibitory activity test in vitro
Procedure: Experimental procedure: the following reagents are added into 96-well plates in sequence and the mixture ratios of different groups are as followings:
Test group: 10 μL compound solution+25 μL (0.1 mM) NADPH solution+25 μL PBS buffer solution+15 μL aldose reductase diluent
Blank group: 25 μL (0.1 mM) NADPH solution+35 μL PBS buffer solution+15 μL aldose reductase diluent
Background group: 25 μL (0.1 mM) NADPH solution+60 μL PBS buffer solution+15 μL aldose reductase diluent
After adding the reagents, the 96-well plate is standed for 10 min at room temperature to make the compound and the enzyme react completely. Add 25 μL 10 mM D, L glyceraldehyde solution which is used as substrate into the groups except for background group, and incubate the solution at 37 °C for 30 min. Then detect the optical density of each well at 340 nm.

HMG-CoA reductase = target: T1, HMG-CoA reductase (Homo sapiens, UniProt P04035); experiment: HMG-CoA reductase inhibitory activity test in vitro
T1 sequence (P04035 426-888 limits assumed): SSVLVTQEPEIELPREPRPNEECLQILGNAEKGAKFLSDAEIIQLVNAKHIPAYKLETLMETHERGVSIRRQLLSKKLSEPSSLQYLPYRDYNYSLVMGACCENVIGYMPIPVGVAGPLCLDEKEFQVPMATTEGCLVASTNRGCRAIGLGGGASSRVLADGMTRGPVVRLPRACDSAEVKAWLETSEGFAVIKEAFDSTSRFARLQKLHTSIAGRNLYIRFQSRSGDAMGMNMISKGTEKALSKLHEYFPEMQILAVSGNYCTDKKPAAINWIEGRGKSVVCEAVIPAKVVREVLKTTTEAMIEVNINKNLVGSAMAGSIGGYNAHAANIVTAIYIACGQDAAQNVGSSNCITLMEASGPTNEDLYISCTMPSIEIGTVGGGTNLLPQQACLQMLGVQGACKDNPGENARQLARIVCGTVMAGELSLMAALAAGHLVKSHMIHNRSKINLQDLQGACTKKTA
Procedure: Add 25 μL HMG-CoA reductase water solution (0.2 U/mL), 25 μL NADPH water solution (0.2 U/mL) and 24 μL phosphate buffer (50 mM, pH 7.0) into 1 μL different concentration of the above test solution. The mixed solution is standed for 10 min at room temperature, and then 25 μL HMG-CoA is added into the mixed solution. After the solution is incubated at 37∞ for 30 min and centrifuged at 5000 rpm for 5 minutes, 80 uL supernatant is added into 96-well plates and the absorbance is detected at 550 nm.
(§1) Repeat each of the above experiment groups for 3 times, and then average the results.

dipeptidyl peptidase-4 = target: T2, dipeptidyl peptidase-4 (Homo sapiens, UniProt P27487); experiment: dipeptidyl peptidase-4 inhibitory activity test in vitro (DPP-4 inhibitor screening kit)
T2 construct: purchased
T2 sequence (P27487 whole entry, species assumed): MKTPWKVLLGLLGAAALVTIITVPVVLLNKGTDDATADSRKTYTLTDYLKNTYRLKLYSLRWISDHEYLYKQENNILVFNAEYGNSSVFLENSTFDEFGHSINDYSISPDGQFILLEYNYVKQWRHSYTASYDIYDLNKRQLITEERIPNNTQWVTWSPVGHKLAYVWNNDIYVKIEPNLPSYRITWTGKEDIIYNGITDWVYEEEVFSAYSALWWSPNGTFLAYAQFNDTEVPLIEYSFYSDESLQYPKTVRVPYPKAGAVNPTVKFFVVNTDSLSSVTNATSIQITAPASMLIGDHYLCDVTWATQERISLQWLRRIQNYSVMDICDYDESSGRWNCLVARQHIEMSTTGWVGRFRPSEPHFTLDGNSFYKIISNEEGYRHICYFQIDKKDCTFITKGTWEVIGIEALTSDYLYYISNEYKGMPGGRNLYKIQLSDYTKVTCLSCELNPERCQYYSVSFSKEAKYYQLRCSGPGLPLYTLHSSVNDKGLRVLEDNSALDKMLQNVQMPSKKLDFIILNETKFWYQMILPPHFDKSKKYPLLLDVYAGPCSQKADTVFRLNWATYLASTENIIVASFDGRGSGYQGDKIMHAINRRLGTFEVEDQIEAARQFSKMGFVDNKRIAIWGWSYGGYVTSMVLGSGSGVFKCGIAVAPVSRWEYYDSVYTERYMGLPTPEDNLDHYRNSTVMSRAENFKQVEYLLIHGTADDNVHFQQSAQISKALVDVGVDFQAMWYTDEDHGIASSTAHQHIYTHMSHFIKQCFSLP
Text: The above compounds are detected by DPP-4 inhibitor screening kit.

[1] = target: T3, protein tyrosine phosphatase 1B (PTP-1B) (Homo sapiens, UniProt P18031); experiment: PTP-1B inhibitory activity test in vitro
T3 sequence (P18031 1-435): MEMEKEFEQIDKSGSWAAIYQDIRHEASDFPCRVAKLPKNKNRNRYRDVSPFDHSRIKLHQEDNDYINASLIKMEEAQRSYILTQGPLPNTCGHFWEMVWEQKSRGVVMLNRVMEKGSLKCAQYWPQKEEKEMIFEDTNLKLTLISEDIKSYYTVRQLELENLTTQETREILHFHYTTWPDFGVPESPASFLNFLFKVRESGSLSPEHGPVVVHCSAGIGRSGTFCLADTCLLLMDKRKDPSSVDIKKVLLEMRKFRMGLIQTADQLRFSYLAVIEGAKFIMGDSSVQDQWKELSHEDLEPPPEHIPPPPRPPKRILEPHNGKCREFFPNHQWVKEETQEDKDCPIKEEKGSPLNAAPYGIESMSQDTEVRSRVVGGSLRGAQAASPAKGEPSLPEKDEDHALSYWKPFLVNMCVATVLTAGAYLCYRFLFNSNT
Procedure: Experimental procedure: the following reagents are added into 96-well plates in sequence and the mixture ratios of different groups are as followings: Test group: 50 μL compound solution+50 μL 170 μg/mL PTP-1B solution […] Blank group: 50 μL buffer solution+50 μL 170 μg/mL PTP-1B solution Background group: 50 μL compound solution+50 μL buffer solution After adding the reagents, the 96-well plate is […] for 10 min at room temperature to make the compound and the enzyme react completely. Add 50 μL 1 mM pNPP solution which is used as substrate and incubate the mixed solution at 37 °C for 30 min. Then add 50 μL 3M NaOH into each well of the plate to stop the reaction and the optical density is detected at […].

α-glucosidase = target: T4, α-glucosidase (Saccharomyces cerevisiae, UniProt P53341); experiment: α-glucosidase inhibitory activity test in vitro
T4 construct: purchased Sigma Corporation G5003
T4 sequence (P53341 whole entry): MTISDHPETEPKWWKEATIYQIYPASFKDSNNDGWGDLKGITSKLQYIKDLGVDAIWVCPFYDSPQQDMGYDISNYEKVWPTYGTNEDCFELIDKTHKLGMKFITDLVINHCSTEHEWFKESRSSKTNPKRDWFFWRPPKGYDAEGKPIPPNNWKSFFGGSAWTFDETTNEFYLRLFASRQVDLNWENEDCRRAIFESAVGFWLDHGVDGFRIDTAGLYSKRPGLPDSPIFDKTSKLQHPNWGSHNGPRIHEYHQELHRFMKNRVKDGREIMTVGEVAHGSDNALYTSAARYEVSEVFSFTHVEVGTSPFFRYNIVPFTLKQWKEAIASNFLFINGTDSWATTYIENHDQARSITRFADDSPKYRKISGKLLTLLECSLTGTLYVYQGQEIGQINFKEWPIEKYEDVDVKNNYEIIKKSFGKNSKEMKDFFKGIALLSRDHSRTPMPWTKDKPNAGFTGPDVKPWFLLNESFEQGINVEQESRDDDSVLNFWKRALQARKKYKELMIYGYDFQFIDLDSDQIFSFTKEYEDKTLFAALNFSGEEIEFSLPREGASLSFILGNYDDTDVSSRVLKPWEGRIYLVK
Procedure: Add 25 μL α-glucosidase water solution (0.2 U/mL) and 175 μL phosphate buffer (50 mM, pH 7.0) into 25 μL different concentration of the above test solutions. The mixed solution is standed for 10 min at room temperature, and then 25 μL 4-nitrophenyl-α-D-glucopyranoside water solution (2.5 mM) is added into the mixed solution. After the solution is incubated at 37 °C for 30 min and centrifuged at 5000 rpm for 5 minutes, 150 uL supernatant is added into 96-well plates and the absorbance is detected at 405 nm.
Blank group: the test solution is replaced by 25 μL phosphate buffer (50 mM, pH 7.0); blank control group: the test solution is replaced by 25 μL phosphate buffer (50 mM, pH 7.0), meanwhile α-glucosidase water solution is replaced by 25 μL phosphate buffer (50 mM, pH 7.0); sample control group: α-glucosidase water solution is replaced by 25 μL phosphate buffer (50 mM, pH 7.0).
as §1
IC50=[CL(IH−50)+CH(50−IL)]/(IH−IL) CL: low concentration value; CH: high concentration value; IH: inhibition rate in high concentration; IL: inhibition rate in low concentration

[2] = read-out: α-glucosidase inhibitory activity (IC50)

Structure (SMILES)	pIC50 (aldose reductase)	pIC50 (HMG-CoA reductase)	pIC50 (dipeptidyl peptidase-4)	pIC50 [1]	pIC50 (α-glucosidase; [2])	pIC50 (α-glucosidase)
CC(C)=CCC/C(C)=C/CCC1=C[C@H](c2ccc(C)cc2)OC1=O [S6, (R,E)-3-(4,8-dimethylnona-3,7-dien-1-yl)-5-(p-tolyl)furan-2(5H)-one]	4.20	5.09	4.50	5.25	5.97	
CC(C)=CCC/C(C)=C/CCC1=C[C@H](c2ccc(C(C)C)cc2)OC1=O [S8, (R,E)-3-(4,8-dimethylnona-3,7-dien-1-yl)-5-(4-isopropylphenyl)furan-2(5H)-one]	4.07	< 4.00	5.03	4.90	4.25	
CC(C)=CCC/C(C)=C/CCC1=C[C@H](c2ccccc2)OC1=O [S1, (R,E)-3-(4,8-dimethylnona-3,7-dien-1-yl)-5-phenylfuran-2 (5H)-one]	4.25	5.42	4.91	4.98	6.74	
CC(C)=CCC/C(C)=C/CCC1=C[C@H](c2c(F)cccc2F)OC1=O [S14, (R,E)-5-(2,6-difluorophenyl)-3-(4,8-dimethylnona-3,7-dien-1-yl)furan-2(5H)-one]	4.49	4.60	4.61	5.43	5.43	
CC(C)=CCC/C(C)=C/CCC1=C[C@@H](c2c(F)cccc2F)OC1=O [S29, (S,E)-5-(2,6-difluorophenyl)-3-(4,8-dimethylnona-3,7-dien-1-yl)furan-2(5H)-one]	4.47	4.77	4.63	5.36	5.40	
CC(C)=CCC/C(C)=C/CCC1=C[C@H](c2cc(F)c(F)c(F)c2)OC1=O [S15, (R,E)-3-(4,8-dimethylnona-3,7-dien-1-yl)-5-(3,4,5-trifluorophenyl)furan-2(5H)-one]	4.26	4.42	4.92	4.60	5.90	
COCOc1ccccc1[C@H]1C=C(CC/C=C(\C)CCC=C(C)C)C(=O)O1 [S3]	4.42	5.05	4.84	5.11	5.06	
C/C(C=O)=C\CC/C(C)=C/CC/C(=C/Cc1cc(O)ccc1O)C(=O)O [S35, (2Z,5E,9E)-2-(2-(2,5-dihydroxyphenyl)ethylidene)-6,10-dimethyl-11-oxo undeca-5,9-dienoic acid]	5.25	4.68	5.11	4.91		4.91
CC(C)=CCC/C(C)=C/CC/C(=C/C(=O)c1cc(O)ccc1O)C(=O)O [S32, (2Z,5E)-2-(2-(2,5-dihydroxyphenyl)-2-oxoethylidene)-6,10-dimethylundeca-5,9-dienoic acid]	4.46	5.27	4.67	5.12	5.27	
COc1ccc(OC)c([C@@H]2C=C(CC/C=C(\C)CCC=C(C)C)C(=O)O2)c1 [S27, (S,E)-5-(2,5-dimethoxyphenyl)-3-(4,8-dimethylnona-3,7-dien-1-yl)furan-2(5H)-one]	4.60	5.36	5.07	4.91	4.82	

Continued, in another order:

pIC50 (aldose reductase)	pIC50 (HMG-CoA reductase)	pIC50 (dipeptidyl peptidase-4)	pIC50 [1]	pIC50 (α-glucosidase; [2])	Structure (SMILES)	pIC50 (α-glucosidase)
4.69	4.37	4.87	5.00	5.20	CC(C)=CCC/C(C)=C/CCC1=C[C@@H](c2ccc3ccccc3c2)OC1=O [S17, (S,E)-3-(4,8-dimethylnona-3,7-dien-1-yl)-5-(naphthalen-2-yl)furan-2 (5H)-one]	
5.02	4.86	4.68	5.33	6.68	CC(C)=CCC/C(C)=C/CCC1=C[C@@H](c2ccccc2[N+](=O)[O-])OC1=O [S20, (S,E)-3-(4,8-dimethylnona-3,7-dien-1-yl)-5-(2-nitrophenyl)furan-2(5H)-one]	
5.28	5.12	4.97	5.01	4.52	CC(C)=CCC/C(C)=C/CCC1=C[C@@H](c2ccc([N+](=O)[O-])cc2)OC1=O [S26, (S,E)-3-(4,8-dimethylnona-3,7-dien-1-yl)-5-(4-nitrophenyl)furan-2(5H)-one]	
5.06	4.90	4.82	4.89	6.01	CC(C)=CCC/C(C)=C/CC/C(=C/Cc1cc(O)ccc1O)C(=O)O [S34, (2Z,5E)-2-(2-(2,5-dihydroxyphenyl)ethylidene)-6,10-dimethylundeca-5,9-dienoic acid]	
5.07	4.72	4.68	5.28	7.05	CC(C)=CCC/C(C)=C/CCC1=C[C@H](c2ccccc2[N+](=O)[O-])OC1=O [S5, (R,E)-3-(4,8-dimethylnona-3,7-dien-1-yl)-5-(2-nitrophenyl)furan-2(5H)-one]	
5.85	4.79	4.72	4.80	6.80	CC(C)=CCC/C(C)=C/CCC1=C[C@H](c2ccc(C(C)(C)C)cc2)OC1=O [S9, (R,E)-5-(4-(tert-butyl)phenyl)-3-(4,8-dimethylnona-3,7-dien-1-yl)furan-2 (5H)-one]	

Reference: patent publication US10441562B2, “Aromatic farnesyl compound and application thereof” (INSTITUTE OF MICROBIOLOGY, CHINESE ACADEMY OF SCIENCES, priority 2015, dated 2019)
